US20240002425A1, “NOVEL AMINOALKYL GLUCOSAMINIDE 4-PHOSPHATE DERIVATIVE” (DAIICHI SANKYO COMPANY, LIMITED, priority 2020, published 2024)

System: binding between RBD and hACE2
Details: in vivo

CCCCCCCCCCC[C@H](CC(=O)N[C@@H](CO[C@@H]1O[C@H](CO[C@]2(C(=O)O)C[C@@H](O)[C@@H](O)[C@@H]([C@H](O)CO)O2)[C@@H](OP(=O)(O)O)[C@H](OC(=O)C[C@@H](CCCCCCCCCCC)OC(=O)CCCCCCCCC)[C@H]1NC(=O)C[C@@H](CCCCCCCCCCC)OC(=O)CCCCCCCCC)CC(=O)O)OC(=O)CCCCCCCCC [Example 2(2e), Ammonium (3R)-3-{[(3R)-3-(decanoyloxy)tetradecanoyl]amino}-4-({3-O-[(3R)-3-(decanoyloxy)tetradecanoyl]-2-{[(3R)-3-(decanoyloxy)tetradecanoyl]amino}-2-deoxy-6-O-(3-deoxy-α-D-manno-oct-2-ulopyranonosyl)-4-O-phosphono-β-D-glucopyranosyl}oxy)butanoate]
inhibition of binding between RBD and hACE2 by nasal wash: inhibited the binding between RBD and hACE2
